The text below walks through data of patent US20150291645A1, “ISOACTEOSIDE DERIVATIVE AND USE THEREOF” (Sinphar Pharmaceutical Co., Ltd., priority 2014, published 2015).

The structures appear in SMILES notation.

Assay [1] relates to Aβ40 degrading enzyme activity in Neuro-2a conditioned medium. The assay can be described thus: Aβ40 degradation in Neuro-2a conditioned medium (Human Aβ1-40 immunoassay). Format: biochemical, mouse. Particulars: 50 μM and 100 μM, 24 hours 37° C., FIG. 5.
Procedure: Experimental method: 2×10^7 of mouse neuroblastoma cells (Neuro-2a) were placed on a T175 culture medium, and after overnight, the T175 culture medium was replaced with 30 mL of a chemical-defined medium incubating for 24 hours. After 24 hours, the chemical-defined medium incubated with the cells, which was called a conditioned medium, was centrifuged for 5 minutes at 13,000 rpm, and supernatant liquid was obtained. 10 ng of Aβ40 and testing medicine were added to 300 μL of the conditioned medium, and the mixture was reacted at 37° C. for 24 hours. Immunoassay kits (Human Aβ1-40 Immunoassay kits, Cat.KHB3482, Life Technologies) were used to measure the remaining amount of Aβ in each reaction to examine whether the medicine can improve the activity for enzyme in the medium to degrade Aβ. One not adding any testing medicine (i.e. only containing 10 ng of Aβ40) was a control, and the measured level of Aβ was set to 100%. The levels of Aβ after treated by the testing medicine were compared to the control and expressed in percentage. […] The statistical differences between the control and the testing samples were analyzed by Dunnett's multiple comparison test, which “*” represented p<0.05; “**” represented p<0.01; “***” represented p<0.001; and “****” represented p<0.0001.
For another assay, the system named is β-amyloid peptides (Aβ). Particulars: position of the caffeoyl group (sixth vs fourth), WO 2011/157059 A1; cited from earlier work.

For `O=C(/C=C/c1ccc(O)c(O)c1)OCC1OC(OCCc2ccc(O)c(O)c2)C(O)C(O)C1O` (stereo not drawn) [Sample 9], the “extracellular Aβ40 degradation” value in assay [1] is recorded as “could effectively improve extracellular Aβ40 degradation”.

As for `C[C@@H]1O[C@@H](O[C@@H]2[C@@H](O)[C@H](OCCc3ccc(O)c(O)c3)O[C@H](CO)[C@H]2OC(=O)/C=C/c2ccc(O)c(O)c2)[C@H](O)[C@H](O)[C@H]1O` [acteoside], in the assay with β-amyloid peptides (Aβ), the “activity of inhibiting β-amyloid peptides (Aβ) accumulation” value is reported as “the activity decreased”.

Take `C[C@@H]1O[C@@H](O[C@@H]2[C@@H](O)[C@H](OCCc3ccc(O)c(O)c3)O[C@H](COC(=O)/C=C/c3ccc(O)c(O)c3)[C@H]2O)[C@H](O)[C@H](O)[C@H]1O` [isoacteoside]: the “activity of inhibiting β-amyloid peptides (Aβ) accumulation” value with β-amyloid peptides (Aβ) was “better”.
